Data: patent US9682940B2, “Indazole derivatives useful as CB-1 inverse agonists” (Janssen Pharmaceutica NV, priority 2015, dated 2017)

Assays:
[1] = molecular target: Human CB2R (Cannabanoid receptor 2) (Homo sapiens (Human), UniProt P34972); assay: CB-2 in vitro cAMP (HTRF) assay in HEK-293 cells; format: cell-based; settings: HEK-293 cells stably transfected with human CB2R, 250 nM Forskolin, mean where tested more than once, read-out: CB-2 (HEK_cAMP) EC50
Procedure, shortened: (§1)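 HEK-293 cells stably expressing human CB1 or CB2 plated overnight, then tested in HBSS/5 mM HEPES/0.1% BSA with 0.5 mM IBMX and forskolin (1.5 μM working dilution). Intracellular cAMP quantified by competitive HTRF immunoassay (d2-cAMP, cryptate anti-cAMP) against a cAMP standard curve; compounds as 1/3 serial dilutions from 10 mM DMSO stocks.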

[2] = molecular target: Human CB1R (Cannabanoid receptor 1) (Homo sapiens (Human), UniProt P21554); assay: CB-1 in vitro cAMP (HTRF) assay in HEK-293 cells; format: cell-based; settings: HEK-293 cells stably transfected with human CB1R, 250 nM Forskolin, mean where tested more than once, read-out: CB-1 (HEK_cAMP) EC50
Procedure, shortened: as §1

Sequence of Human CB1R (Cannabanoid receptor 1) (P21554 whole entry): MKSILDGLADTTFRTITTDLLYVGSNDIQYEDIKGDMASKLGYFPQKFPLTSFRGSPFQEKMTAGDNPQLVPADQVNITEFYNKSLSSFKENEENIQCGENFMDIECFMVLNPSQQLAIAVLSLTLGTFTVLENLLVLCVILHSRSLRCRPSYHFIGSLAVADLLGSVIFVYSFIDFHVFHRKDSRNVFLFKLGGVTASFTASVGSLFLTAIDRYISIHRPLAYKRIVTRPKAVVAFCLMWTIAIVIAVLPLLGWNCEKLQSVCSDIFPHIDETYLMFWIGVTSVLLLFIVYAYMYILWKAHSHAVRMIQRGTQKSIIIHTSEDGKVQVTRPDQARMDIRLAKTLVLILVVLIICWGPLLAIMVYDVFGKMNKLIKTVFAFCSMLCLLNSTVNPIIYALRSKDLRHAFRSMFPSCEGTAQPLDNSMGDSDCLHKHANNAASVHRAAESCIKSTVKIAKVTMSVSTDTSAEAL
Sequence of Human CB2R (Cannabanoid receptor 2) (P34972 whole entry): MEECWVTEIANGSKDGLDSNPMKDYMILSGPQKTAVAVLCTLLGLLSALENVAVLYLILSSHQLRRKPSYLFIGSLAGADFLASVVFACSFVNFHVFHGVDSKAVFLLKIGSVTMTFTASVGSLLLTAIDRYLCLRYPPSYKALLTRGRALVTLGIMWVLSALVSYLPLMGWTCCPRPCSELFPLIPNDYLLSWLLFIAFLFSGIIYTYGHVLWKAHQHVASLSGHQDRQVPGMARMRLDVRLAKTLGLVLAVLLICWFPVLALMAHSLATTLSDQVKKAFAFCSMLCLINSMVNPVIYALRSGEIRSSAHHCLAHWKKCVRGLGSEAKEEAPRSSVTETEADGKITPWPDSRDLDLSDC

Row | SMILES | EC50 [1] | EC50 [2]
1 | O=S(=O)(N1CCC(c2nn(CCO)c3ccc(C(c4ccc(Cl)cc4)c4ccc(Cl)cc4)cc23)CC1)C(F)(F)F [Compound 79] | > 10000 nM | 14 nM
2 | NC(=O)c1cccc(S(=O)(=O)N2CCC(c3n[nH]c4ccc(C(c5ccc(Cl)cc5)c5ccc(Cl)cc5)cc34)CC2)c1 [Compound 66] | > 10000 nM | 160 nM
3 | O=S(=O)(N1CCC(c2nn(-c3ccc(C(F)(F)F)cc3)c3ccc(C(c4ccc(Cl)cc4)c4ccc(Cl)cc4)cc23)CC1)C(F)(F)F [Compound 46] | > 10000 nM | 40 nM
4 | CNC(=O)c1ccc(S(=O)(=O)N2CCC(c3c4cc(C(c5ccc(Cl)cc5)c5ccc(Cl)cc5)ccc4nn3C3CC3)CC2)cc1OC [Compound 147, 4-(4-(5-(bis(4-chlorophenyl)methyl)-2-cyclopropyl-2H-indazol-3-yl)piperidin-1-ylsulfonyl)-2-methoxy-N-methylbenzamide] | > 10000 nM | 23 nM
5 | O=C(O)c1cccc(CN2CCC(c3n[nH]c4ccc(C(c5ccc(Cl)cc5)c5ccc(Cl)cc5)cc34)CC2)c1 [Compound 225] | 3300 nM | 56 nM
6 | COc1cccc(S(=O)(=O)N2CCC(Nc3n[nH]c4ccc(C(c5ccc(Cl)cc5)c5ccc(Cl)cc5)cc34)CC2)c1 [Compound 101] | > 10000 nM | 293 nM
7 | O=S(=O)(c1ccccc1C(F)(F)F)N1CCC(c2n[nH]c3ccc(C(c4ccc(Cl)cc4)c4ccc(Cl)cc4)cc23)CC1 [Compound 33] | > 10000 nM | 49 nM
8 | O=C(O)c1cccc(C(=O)N2CCC(c3c4cc(C(c5ccc(Cl)cc5)c5ccc(Cl)cc5)ccc4nn3C3CC3)CC2)c1 [Compound 111] | > 10000 nM | 3500 nM
9 | NC(=O)CS(=O)(=O)N1CCC(c2nn(C3CC3)c3ccc(C(c4ccc(Cl)cc4)c4ccc(Cl)cc4)cc23)CC1 [Compound 115] | > 10000 nM | 1010 nM
10 | COC(=O)c1ccccc1S(=O)(=O)N1CCC(c2n[nH]c3ccc(C(c4ccc(Cl)cc4)c4ccc(Cl)cc4)cc23)CC1 [Compound 31] | 2340 nM | 128 nM
11 | O=C(O)CS(=O)(=O)N1CCC(c2n[nH]c3ccc(C(c4ccc(Cl)cc4)c4ccc(Cl)cc4)cc23)CC1 [Compound 22] | > 10000 nM | 249 nM
12 | O=C(O)c1cccc(C(=O)N2CCC(c3nn(C4CC4)c4ccc(C(c5ccc(Cl)cc5)c5ccc(Cl)cc5)cc34)CC2)c1 [Compound 97] | > 10000 nM | 478 nM
13 | COc1cc(S(=O)(=O)N2CCC(c3c4cc(C(c5ccc(Cl)cc5)c5ccc(Cl)cc5)ccc4nn3C3CC3)CC2)ccc1C(N)=O [Compound 146, 4-(4-(5-(bis(4-chlorophenyl)methyl)-2-cyclopropyl-2H-indazol-3-yl)piperidin-1-ylsulfonyl)-2-methoxybenzamide] | > 10000 nM | 7 nM
14 | O=C(O)CCS(=O)(=O)N1CCC(c2c3cc(C(c4ccc(Cl)cc4)c4ccc(Cl)cc4)ccc3nn2C2CC2)CC1 [Compound 133] | > 10000 nM | 3910 nM
15 | O=C(O)c1ccc(CN2CCC(c3n[nH]c4ccc(C(c5ccc(Cl)cc5)c5ccc(Cl)cc5)cc34)CC2)cc1 [Compound 221] | > 42000 nM | 134 nM
16 | O=C(O)c1ccccc1S(=O)(=O)N1CCC(c2nn(C3CC3)c3ccc(C(c4ccc(Cl)cc4)c4ccc(Cl)cc4)cc23)CC1 [Compound 87] | > 10000 nM | 6740 nM
17 | COc1ccc(S(=O)(=O)N2CCC(c3c4cc(C(c5ccc(Cl)cc5)c5ccc(Cl)cc5)ccc4nn3C3CC3)CC2)cc1 [Compound 152, 5-(bis(4-chlorophenyl)methyl)-2-cyclopropyl-3-(1-(4-methoxyphenylsulfonyl)piperidin-4-yl)-2H-indazole] | > 10000 nM | 17 nM
18 | COC(=O)c1cccc(CN2CCC(c3n[nH]c4ccc(C(c5ccc(Cl)cc5)c5ccc(Cl)cc5)cc34)CC2)c1 [Compound 259] | > 42000 nM | 374 nM
19 | O=S(=O)(N1CCC(c2nn(-c3nccs3)c3ccc(C(c4ccc(Cl)cc4)c4ccc(Cl)cc4)cc23)CC1)C(F)(F)F [Compound 37] | > 10000 nM | 8 nM
20 | O=C(O)c1csc(CN2CCC(c3c4cc(C(c5ccc(Cl)cc5)c5ccc(Cl)cc5)ccc4nn3C3CC3)CC2)c1 [Compound 239, 5-((4-(5-(bis(4-chlorophenyl)methyl)-2-cyclopropyl-2H-indazol-3-yl)piperidin-1-yl)methyl)thiophene-3-carboxylic acid] | > 10000 nM | 43 nM
21 | COC(=O)c1ccc(CN2CCC(c3n[nH]c4ccc(C(c5ccc(Cl)cc5)c5ccc(Cl)cc5)cc34)CC2)cc1 [Compound 258] | > 42000 nM | 428 nM

Further lines, results first:

Row | EC50 [1] | EC50 [2] | SMILES
22 | > 10000 nM | 271 nM | NC(=O)Cc1ccc(N2CCC(c3nn(C4CC4)c4ccc(C(c5ccc(Cl)cc5)c5ccc(Cl)cc5)cc34)CC2)cc1 [Compound 182]
23 | > 10000 nM | 68 nM | NC(=O)c1ccc(N2CCC(c3n[nH]c4ccc(C(c5ccc(Cl)cc5)c5ccc(Cl)cc5)cc34)CC2)cc1 [Compound 208]
24 | 7040 nM | 2 nM | O=C(O)c1cc(S(=O)(=O)N2CCC(c3c4cc(C(c5ccc(Cl)cc5)c5ccc(Cl)cc5)ccc4nn3C3CC3)CC2)ccc1Cl [Compound 168, 5-(4-(5-(bis(4-chlorophenyl)methyl)-2-cyclopropyl-2H-indazol-3-yl)piperidin-1-ylsulfonyl)-2-chlorobenzoic acid]
25 | > 10000 nM | 265 nM | NC(=O)c1cccc(N2CCC(c3n[nH]c4ccc(C(c5ccc(Cl)cc5)c5ccc(Cl)cc5)cc34)CC2)c1 [Compound 218]
26 | > 10000 nM | 37 nM | O=C(NCCO)c1ccc(-n2nc(C3CCN(S(=O)(=O)C(F)(F)F)CC3)c3cc(C(c4ccc(Cl)cc4)c4ccc(Cl)cc4)ccc32)cc1 [Compound 229]
27 | > 10000 nM | 169 nM | CC(O)Cn1nc(C2CCN(S(=O)(=O)C(F)(F)F)CC2)c2cc(C(c3ccc(Cl)cc3)c3ccc(Cl)cc3)ccc21 (centres unmarked) [Compound 202]
28 | 4270 nM | 199 nM | CCNC(=O)N1CCC(c2n[nH]c3ccc(C(c4ccc(Cl)cc4)c4ccc(Cl)cc4)cc23)CC1 [Compound 264]
29 | > 10000 nM | 59 nM | NC(=O)Cc1ccc(N2CCC(c3c4cc(C(c5ccc(Cl)cc5)c5ccc(Cl)cc5)ccc4nn3C3CC3)CC2)cc1 [Compound 186]
30 | > 10000 nM | 672 nM | O=C(NCc1ccccc1)N1CCC(c2n[nH]c3ccc(C(c4ccc(Cl)cc4)c4ccc(Cl)cc4)cc23)CC1 [Compound 262]
31 | > 10000 nM | 624 nM | O=C(O)c1ccc(S(=O)(=O)N2CCC(c3c4cc(C(c5ccc(Cl)cc5)c5ccc(Cl)cc5)ccc4nn3C3CC3)CC2)cc1F [Compound 200]
32 | > 10000 nM | 3 nM | NC(=O)c1ccc(S(=O)(=O)N2CCC(c3c4cc(C(c5ccc(Cl)cc5)c5ccc(Cl)cc5)ccc4nn3C3CC3)CC2)o1 [Compound 172, 5-(4-(5-(bis(4-chlorophenyl)methyl)-2-cyclopropyl-2H-indazol-3-yl)piperidin-1-ylsulfonyl)furan-2-carboxamide]
33 | > 10000 nM | 2640 nM | CC(C)(O)Cn1nc(C2CCN(S(=O)(=O)C(F)(F)F)CC2)c2cc(C(c3ccc(Cl)cc3)c3ccc(Cl)cc3)ccc21 [Compound 201]
34 | > 10000 nM | 40 nM | O=C(OC1CCCC1)N1CCC(c2n[nH]c3ccc(C(c4ccc(Cl)cc4)c4ccc(Cl)cc4)cc23)CC1 [Compound 271]
